The results in this text go back to patent US20220031690A1, “ANTI-NEURODEGENERATIVE DISEASE AGENT” (Hayashibara Co., Ltd., priority 2018, published 2022).

Usually IC50 stands for the midpoint of a concentration-inhibition curve. A high value points to lower potency.

In experiment [1] the test system is PC12-HS cells. In words: Evaluation method B: neurite-outgrowth promoting activity in the presence of NGF. The experiment is classed as cell-based, rat. Conditions: for Action on PC12-HS neurite-outgrowth promotion (500 ng/ml) / Neurite-outgrowth rate (%): NGF 10 ng/ml; for Action on PC12-HS neurite-outgrowth promotion (500 ng/ml): 3 days, class of neurite-outgrowth rate; for neurite-outgrowth promoting activity (in words): 200 and 1,000 nM, comment on Table 2. From the text: (§1) As a model of the nerve cell, the NGF (nerve growth factor) highly sensitive strain of PC12 cell derived from the rat adrenal pheochromocytoma (hereinafter referred to as “PC12-HS cell”; JCRB cell bank, National Research and Development Institute of Health and Nutrition), which has been widely used as a suitable model for research on human neurodegenerative disease, was used. As the test compound, […] of trimethine cyanine dye compounds; NK-5 (Chemical formula 2), NK-36 (Chemical formula 3), NK-44 (Chemical formula 5) and dye compounds represented by Chemical formulae 12 to 18, and NK-6 (Chemical formula 7), which is a monomethine cyanine dye, were selected. In addition, two kinds of ethylene cross-linked dyes (Chemical formulae 19 and 20), 15 kinds of monomethine cyanine dyes (Chemical formulae 21 to 35), and seven kinds of trimethine cyanine dyes (Chemical formulae 36 to 42), which were expected to have a good neurocyte growth acceleration activity and/or neurite-outgrowth promoting activity in the screening disclosed in Patent literature 6, were also re-evaluated for comparison. The Chemical formulae 12 to 42 are shown below.
(§2) The cyanine dye compounds subjected to the test (purity 97% by mass or more, synthesized by Hayashibara Co., Ltd., Okayama, Japan) were individually dissolved in DMSO (product number “D8418”, commercialized by SIGMA Corporation) at a concentration of 5 mg/ml, and the solutions were then filtered through DMSO-resistant membrane (“Millex-LGS LLG025SS”, commercialized by Millipore Corporation) and stored at 25° C. in a dark condition. At the time of use, they were further diluted with Dulbecco's Medium (hereinafter, abbreviated as “D-MEM medium”, commercialized by Nissui Pharmaceutical Co., Ltd.) supplemented by 10% by volume of fetal bovine serum (FBS), and subjected to the test.
As in the case of evaluation of neurocyte growth accelerating activity (Evaluation method A), 50 μl/well of each test compound solution, prepared by diluting with the culture medium to give a final concentration of 500 ng/ml, and the culture medium containing 20 ng/ml of mouse NGF (mouse derived, final concentration 10 ng/ml, commercialized by Chemicon International, Inc., CA, USA) (50 μl/well) were added to the precultured PC12-HS cells in each well, and then cultured for three days. Culture medium was removed on day 3 of culture, and cells were fixed by adding 100 μl/well of 10% by volume of glutaraldehyde and standing for 20 minutes at room temperature. As a negative control, PC12-HS cells, cultured for three days with culture medium, were fixed with glutaraldehyde similarly as above. Fixed cells were observed under a microscope to assess the neurite-outgrowth. The neurite-outgrowth rate (%) was determined by observing the cells using a microscope by adjusting the magnitude to give about 100 cells in one visual field, counting the number of cells having neurites twice or more in length of the cell body (major axis), dividing by the total number of cells in the same visual field, and multiplying by 100. Measurements were carried out at three points for each test compound. […] In this experiment, the neurite-outgrowth rate was 5% or less when NGF was added (final concentration 10 ng/ml) without the addition of the test compound.
The method was based on Experiment 1-1, except the concentrations of the test compounds were set to three doses of 40 nM, 200 nM and 1,000 nM for evaluation method A (neurocyte growth accelerating effect), and two doses of 200 nM and 1,000 nM for evaluation method B (neurite outgrowth promoting effect). Measurements were performed in triplicate for each concentration of each test compound in both evaluation methods A and B. The result of the evaluation method A was expressed as a cell proliferation rate (%) by determined a relative percentage (%) when the value of the negative control to which the test compound was not added, was regarded as 100%. […]

Experiment [2] deals with PC12-HS cells. In words: Evaluation method A: neurocyte growth acceleration activity (Alamar blue). The experiment is classed as cell-based, rat. To be noted: for Action on PC12-HS growth acceleration (50 ng/ml): 3 days culture, class of cell proliferation rate vs negative control = 100%; for Cell proliferation rate (%): negative control = 100%; for neurocyte growth acceleration activity (in words): 40, 200 and 1,000 nM, comment on Table 2.
Excerpt: as §1, §2
PC12-HS cells were subjected to tests after frozen stock cultured cells were thawed and cultured with a D-MEM medium supplemented with 10% by volume of FBS (Hereinafter, when the term “culture” is simply used, it means that the cells are statically cultured in an incubator controlled at 37° C. under 5% by volume of CO2 conditions). Cells used in the test were collected using 0.25% by weight of trypsin solution, then diluted with a D-MEM medium supplemented with 10% by volume of FBS (hereinafter referred to as “culture medium”), seeded into collagen-coated 96-well plates (commercialized by Falcon, Tokyo, Japan, “Microtest Plate, Cell Culture, Flat Bottom”) to obtain 5×10^3 cells/100 μl/well, and cultured for 24 hours (hereinafter referred to as “pre-culture”). Then, the above test samples were diluted with a culture medium, and 100 μl of diluted solution of the test compounds were added to each well so that the final concentration of the test compounds in the wells became 50 ng/ml, and the cells were cultured for another three days. On day 3, the cultures supernatant was removed from each well, 200 μl of culture medium containing 10% by volume of Alamar blue reagents (commercialized by Trek Diagnostic Systems Inc., Ohio, USA) were added to each well, and the cells were cultured for 6 hours. After culturing for 6 hours, the cells were measured for fluorescent intensity at a wavelength of 544-590 nm by “FlexStation 3”, a product name of a fluorescent plate reader (commercialized by Japan Molecular Devices Corporation, Tokyo, Japan). […] Measurements were performed for each test compound in triplicate, and the mean values were shown.
The method was based on Experiment 1-1, except the concentrations of the test compounds were set to three doses of 40 nM, 200 nM and 1,000 nM for evaluation method A (neurocyte growth accelerating effect), and two doses of 200 nM and 1,000 nM for evaluation method B (neurite outgrowth promoting effect). […]
For orientation: Alamar Blue is a resazurin reagent that responds to reducing activity.

Experiment [3] can be described thus: DPPH radical scavenging ability (absorbance method). Conditions: ethanol, room temperature, 2 hours, absorbance at 490 nm. The experiment is classed as biochemical. From the text:
2,2-Diphenyl-1-picrylhydrazyl (hereinafter referred to as “DPPH”) is a radical with an unpaired electron and has the oxidizing ability of other substances. In addition, because it is stable and easy to handle, it is widely used as an artificial radical-like substance for measuring the antioxidant ability of antioxidants. When DPPH reacts with a substance having antioxidant ability, it loses its own oxidizing ability and its color changes from deep purple to […].
DPPH (commercialized by Tokyo Kasei Kogyo Co., Ltd., Tokyo, Japan) was dissolved in ethanol to prepare a 167 μM DPPH ethanol solution, and 90 μl of the solution was added to each well of the 96-well microplate. A 60 μl each of the test compound serially diluted with ethanol was added to the DPPH ethanol solution, and the mixture was reacted at room temperature for 2 hours, and then the absorbance at 490 nm was measured. […] From those value, the 50% inhibitory concentration of the DPPH radical (Hereinafter, it is referred to as “IC50”) was calculated.
(In general: DPPH is a stable violet radical that fades when it is reduced.)

As for `CN(C)c1ccc(C=Cc2oc3ccccc3[n+]2C)cc1.[I-]` [NK-528], in experiment [1], the “Action on PC12-HS neurite-outgrowth promotion (500 ng/ml)” value (“Action … (500 ng/ml)” below) is given as “◯ (When the mean neurite-outgrowth rate was 25 to 44%, it was judged to be equivalent to the positive control NK-4 (“circle”))”. The “Action on PC12-HS growth acceleration (50 ng/ml)” value (“Action … (50 ng/ml)” below) in experiment [2] is recorded as “◯ (the relative value of 130% to 169% was judged to be equivalent to NK-4 (“circle”))”.

`CCN1C(=Cc2sc3ccccc3[n+]2CC)Sc2ccccc21.[Br-]` [NK-1560]: the “Action … (500 ng/ml)” value in experiment [1] was “◯ (When the mean neurite-outgrowth rate was 25 to 44%, it was judged to be equivalent to the positive control NK-4 (“circle”))”.

Turning to `CN1C(=CC2=[N+](C)c3ccccc3C2(C)C)Sc2ccccc21.[I-]` [NK-1570], in experiment [1], the “Action … (500 ng/ml)” value was “◯ (When the mean neurite-outgrowth rate was 25 to 44%, it was judged to be equivalent to the positive control NK-4 (“circle”))”.

As to `CN1C(=CC2=[N+](C)c3ccccc3C2(C)C)Oc2ccccc21.[I-]` [NK-1684], the “Action … (500 ng/ml)” value in experiment [1] is given as “◯ (When the mean neurite-outgrowth rate was 25 to 44%, it was judged to be equivalent to the positive control NK-4 (“circle”))”.

As for `CC1(C)C(=CC=CC2=[N+](CCO)c3ccccc3C2(C)C)N(CCO)c2ccccc21.[Br-]` [NK-1883], the “Neurite-outgrowth rate (%)” value in experiment [1] (1.000 nM) and in experiment [1] (200 nM) was 13.3% in each case. Besides, the “Cell proliferation rate (%)” value in experiment [2] (1.000 nM) amounted to 87.5%; in experiment [2] (40 nM), 104.8%; in experiment [2] (200 nM) it was 105.1%. In addition, the “neurocyte growth acceleration activity (in words)” value in experiment [2] is listed as “almost no growth acceleration activity”.

For the compound `O=S(=O)([O-])CCCN1CCSC1=CC=CC1=[N+](CCCS(=O)(=O)[O-])CCS1.[Na+]` [NK-3134], the figures for the “Neurite-outgrowth rate (%)” value in experiment [1] (1.000 nM) and in experiment [1] (200 nM) were 18.2% and 29.4%, respectively. For the same compound, the “neurite-outgrowth promoting activity (in words)” value in experiment [1] was “almost equivalent neurite-outgrowth promoting rate to NK-4”. Further, the “Cell proliferation rate (%)” value in experiment [2] (1.000 nM) was found to be 122.8%; in experiment [2] (40 nM) it was 103.9%; in experiment [2] (200 nM), 119.6%. The “Action … (50 ng/ml)” value in experiment [2] was “◯ (the relative value of 130% to 169% was judged to be equivalent to NK-4 (“circle”))”. Further, the “neurocyte growth acceleration activity (in words)” value in experiment [2] was “slightly weaker activity than NK-6 and NK-36”.

Take `CCN1C(=CC(C)=Cc2sc3ccccc3[n+]2CCCS(=O)(=O)[O-])Sc2ccccc21` [NK-4781]: the “Neurite-outgrowth rate (%)” value in experiment [1] (1.000 nM) was 88.3%; in experiment [1] (200 nM), 31.2%. The “Action … (500 ng/ml)” value in experiment [1] is given as “⊚ (45% or more was judged to be more potent than NK-4 (“double circle”))”. The “neurite-outgrowth promoting activity (in words)” value in experiment [1] is “stronger neurite-outgrowth promoting activity than NK-4”. Moreover, the figures for the “Cell proliferation rate (%)” value in experiment [2] (1.000 nM), in experiment [2] (40 nM) and in experiment [2] (200 nM) were 89.1%, 110.0% and 106.6%, respectively. Further, the “neurocyte growth acceleration activity (in words)” value in experiment [2] was “almost no growth acceleration activity”.

Regarding `CC1=CO/C(=C\C=C\c2occ(C)[n+]2C)N1C.F[P-](F)(F)(F)(F)F` [NK-10089], the “Neurite-outgrowth rate (%)” value in experiment [1] (1.000 nM) was found to be 29.3%; in experiment [1] (200 nM), 0.0%. Also, the “Cell proliferation rate (%)” value in experiment [2] (1.000 nM) is listed as 91.6%; in experiment [2] (40 nM), 110.6%; in experiment [2] (200 nM), 123.4%. Further, the “Action … (50 ng/ml)” value in experiment [2] was “◯ (the relative value of 130% to 169% was judged to be equivalent to NK-4 (“circle”))”. Also, the “neurocyte growth acceleration activity (in words)” value in experiment [2] was “slightly weaker activity than NK-6 and NK-36”.

Consider `COC1C=CC=CC1=CC=CC1=[N+](C)c2ccc3ccccc3c2C1(C)C.Cc1ccc(S(=O)(=O)[O-])cc1` (stereo not shown) [NK-10214], for which the “Neurite-outgrowth rate (%)” value in experiment [1] (1.000 nM) amounted to 48.8%; in experiment [1] (200 nM) it was 23.6%. In experiment [1], the “Action … (500 ng/ml)” value is on record as “⊚ (45% or more was judged to be more potent than NK-4 (“double circle”))”. In experiment [1], the “neurite-outgrowth promoting activity (in words)” value was “stronger neurite-outgrowth promoting activity than NK-4”. The entries for the “Cell proliferation rate (%)” value in experiment [2] (1.000 nM), in experiment [2] (40 nM) and in experiment [2] (200 nM) were 103.3%, 109.3% and 123.1%, respectively. In experiment [2], the “neurocyte growth acceleration activity (in words)” value is “slightly weaker activity than NK-6 and NK-36”.

As to `CCn1ccc(=O)c2ccccc21` [NKX-4076], the IC50 in experiment [3] was at least 10 mM.
